Assay results reported in patent US10072017B2, “Compounds and methods for the treatment of cystic fibrosis” (Flatley Discovery Lab, LLC, priority 2015, dated 2018).

Biological target: T1, CFTR (Homo sapiens, UniProt P13569, DEL508-508)
T1 construct: Primary CF airway epithelial cells were obtained from the UNC Cystic Fibrosis Tissue Procurement and Cell Culture Core; host or cells: primary CF airway epithelial cells
Assay: Equivalent current assay in Primary CF airway epithelial cells (NAUC)
Type: cell-based
Conditions: 24 h, normalized to VX809 (3 μM) positive control; for Nauc @ 3 μM: 3 μM test compound; for Nauc @ 10 μM: 10 μM test compound
Protocol: Primary CF airway epithelial cells were obtained from the UNC Cystic Fibrosis Tissue Procurement and Cell Culture Core. The cells are grown at 37° C. in a Heracell 150i incubator using growth media (BEGM, Fischer). Cells were then transferred to differentiation media (ALI, UNC) for a minimum of 4 weeks on coated Costar snapwells. Two days before the Ussing assay the mucus on the apical surface of the cells was aspirated after incubating with 200 μL of differentiation Media for at least thirty (30) minutes. One day before the Ussing assay test compounds were added to the basolateral surface of the cells at various test concentrations dissolved in DMSO. Duplicate wells were prepared giving a n=3 or n=4 protocol.
Cells were treated for 24 hours with various combinations and concentrations of the test articles, reference standard (3 μM VX809, positive control). Compounds stock solutions were prepared in DMSO and diluted 1/1000 into ALI media to their final assay concentration. Cells were treated with combination solutions (2 mL of each dilution) and incubated at 37° C. for 24 h.
For the equivalent current assay, cells on four Transwell (24-well) plates were treated. Each Transwell plate was filled with 200 μl of HBS on the apical surface and 2 ml on the basolateral surface. Plates were placed horizontally in a heated mount at 37° C., and equilibrated for several minutes. Resting current was measured for 15 min and then blocked by the apical addition of 5 μM benzamil. After 20 min, 10 μM forskolin and 1 μM VX770 were added to both the apical and basolateral side to stimulate CFTR. An increase in chloride current is seen as an upward deflection of the trace. After another 30 min, CFTR-172 (a CFTR inhibitor, 20 μM) and/or bumetanide (20 uM) was added to block CFTR mediated chloride current.
The raw data, current vs. time for the Ussing chamber (sampling interval: 10 s) and voltage vs. time and resistance vs. time for the equivalent current assay (sampling interval: 5 minutes) were transferred to Excel (Microsoft Office Professional, version 14.0.7106.5003) for analysis. CFTR specific current was measured as the average amplitude of the increase in current elicited upon addition forskolin and ending upon addition of the CFTR channel specific blocker CFTR-172. This average is equivalent to the sum of the average forskolin activated and the average VX770-potentiated currents. The average current measured in vehicle (0.1% DMSO) treated cells, Iv, was subtracted from the current for the test article, ITA, or from the corrector reference standard VX809 (3 uM ISTD. For replicate measurements, the average vehicle subtracted response for the test article, was normalized to the average vehicle subtracted inhibitor response of the reference corrector VX809 (3 μM). INSC=(ITA−IV)(ave)/(ISTD−IV)(ave) (Equation 1)
A second endpoint, for the equivalent current assay, evaluated was NAUC, the normalized area under the curve (AUC) measuring the response after addition of forskolin and VX770 to the time point right before the addition of the CFTR inhibitor. The AUC is effectively the average response multiplied by the duration of the response. The AUC of the test article, AUCTA was then corrected by subtracting the average vehicle response, AUCV,ave over the same time range, and normalized as for the inhibitor-sensitive current to the difference of the corrector reference standard VX809 (3 μM VX809r,ave and the vehicle response: NAUCTA=[AUCTA−AUCV,ave]/[AUCVx809r,ave−AUCV,ave] (Equation 2).
The normalized value for DMSO is 0.0 and for VX-809 alone is 1.0. Combinations of compounds with VX-809 that give normalized values greater than 1.0 show activity in the combination assay. A value of 2 means the test compound doubles the effect to VX-809 alone.
Experiments were run with a minimum of n=4 replicates per concentration. […]

T1 sequence (P13569 with tags, fused parts or gaps DEL508-508): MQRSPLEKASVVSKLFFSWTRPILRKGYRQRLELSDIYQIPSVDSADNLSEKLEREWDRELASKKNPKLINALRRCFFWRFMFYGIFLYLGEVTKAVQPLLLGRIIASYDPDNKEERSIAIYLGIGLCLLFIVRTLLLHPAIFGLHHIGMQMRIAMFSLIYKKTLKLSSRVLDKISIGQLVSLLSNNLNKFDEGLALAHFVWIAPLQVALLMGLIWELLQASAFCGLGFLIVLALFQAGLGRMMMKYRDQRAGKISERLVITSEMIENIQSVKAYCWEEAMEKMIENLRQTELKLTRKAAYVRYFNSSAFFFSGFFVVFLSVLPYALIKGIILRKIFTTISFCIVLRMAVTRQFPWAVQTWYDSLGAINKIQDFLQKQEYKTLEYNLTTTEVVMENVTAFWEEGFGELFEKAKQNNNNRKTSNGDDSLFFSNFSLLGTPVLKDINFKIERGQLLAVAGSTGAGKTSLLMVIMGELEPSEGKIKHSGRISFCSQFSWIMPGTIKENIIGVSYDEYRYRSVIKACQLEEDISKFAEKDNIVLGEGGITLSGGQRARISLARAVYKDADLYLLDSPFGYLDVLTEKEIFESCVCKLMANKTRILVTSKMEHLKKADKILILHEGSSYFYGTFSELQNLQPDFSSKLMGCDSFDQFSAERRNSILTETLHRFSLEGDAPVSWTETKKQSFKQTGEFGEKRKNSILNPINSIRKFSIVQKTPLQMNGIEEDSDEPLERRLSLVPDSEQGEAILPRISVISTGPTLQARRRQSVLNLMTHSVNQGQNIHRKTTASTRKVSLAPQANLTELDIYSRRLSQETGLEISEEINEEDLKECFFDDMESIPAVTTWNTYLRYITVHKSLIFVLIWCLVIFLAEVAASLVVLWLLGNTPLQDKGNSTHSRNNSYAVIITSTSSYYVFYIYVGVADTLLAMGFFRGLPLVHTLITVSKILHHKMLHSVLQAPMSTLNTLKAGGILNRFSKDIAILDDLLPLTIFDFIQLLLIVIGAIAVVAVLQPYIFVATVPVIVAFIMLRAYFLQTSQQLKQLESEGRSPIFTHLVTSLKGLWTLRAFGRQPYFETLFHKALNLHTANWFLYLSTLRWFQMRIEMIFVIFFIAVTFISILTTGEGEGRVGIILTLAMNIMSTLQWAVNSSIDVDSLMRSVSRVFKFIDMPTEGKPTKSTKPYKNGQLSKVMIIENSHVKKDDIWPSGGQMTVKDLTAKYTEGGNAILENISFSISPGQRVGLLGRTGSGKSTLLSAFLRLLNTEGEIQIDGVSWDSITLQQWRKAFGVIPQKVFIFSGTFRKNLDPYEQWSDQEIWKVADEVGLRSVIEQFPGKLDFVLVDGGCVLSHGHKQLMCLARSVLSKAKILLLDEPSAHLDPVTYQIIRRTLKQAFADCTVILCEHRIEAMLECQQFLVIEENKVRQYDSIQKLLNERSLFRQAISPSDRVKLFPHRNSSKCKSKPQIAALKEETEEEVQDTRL

| Structure (SMILES) | Nauc @ 3 μM | Nauc @ 10 μM |
| --- | --- | --- |
| COc1cc(Cl)cc(N2C(=O)C3C4CC(=C(F)F)CN4C4(C(=O)Nc5c(Cl)cc(Cl)cc54)C3C2=O)c1 (single isomer, unassigned) [Example 139] | ++ (NAUC “++” refers to an observed NAUC 170-140% of positive control) | + (NAUC “+” refers to an observed NAUC <140% of positive control) |
| COc1c(Cl)cc(N2C(=O)C3C4CC(C)(C)CN4C4(C(=O)Nc5c(Cl)cc(Cl)cc54)C3C2=O)cc1Cl (single isomer, unassigned) [Example 140] | +++ (NAUC “+++” refers to an observed NAUC >170% of positive control) | +++ (NAUC “+++” refers to an observed NAUC >170% of positive control) |
| COc1c(Cl)cc(N2C(=O)C3C4CC(C)(C)CN4C4(C(=O)Nc5c(Cl)cc(Cl)cc54)C3C2=O)cc1Cl (single isomer, unassigned) [Example 141] | + (NAUC “+” refers to an observed NAUC <140% of positive control) | ++ (NAUC “++” refers to an observed NAUC 170-140% of positive control) |
| C=C1CC2C3C(=O)N(c4cc(Cl)cc(Cl)c4)C(=O)C3C3(C(=O)Nc4c(Cl)cc(Cl)cc43)N2C1 (single isomer, unassigned) [Example 144] | +++ (NAUC “+++” refers to an observed NAUC >170% of positive control) | +++ (NAUC “+++” refers to an observed NAUC >170% of positive control) |
| C[C@@]1(F)CC2C3C(=O)N(c4cc(Cl)cc(Cl)c4)C(=O)C3C3(C(=O)Nc4c(Cl)cc(Cl)cc43)N2C1 (single isomer, unassigned) [Example 161] | +++ (NAUC “+++” refers to an observed NAUC >170% of positive control) | +++ (NAUC “+++” refers to an observed NAUC >170% of positive control) |
| COc1c(Cl)cc(N2C(=O)C3C4C[C@@](C)(F)CN4C4(C(=O)Nc5c(Cl)cc(Cl)cc54)C3C2=O)cc1Cl (single isomer, unassigned) [Example 162] | + (NAUC “+” refers to an observed NAUC <140% of positive control) | ++ (NAUC “++” refers to an observed NAUC 170-140% of positive control) |
| O=C1C2C3CC(F)(F)CN3C3(C(=O)Nc4c(Cl)cc(Cl)cc43)C2C(=O)N1c1cc(Cl)cc(Cl)c1 (single isomer, unassigned) [Example 179] | +++ (NAUC “+++” refers to an observed NAUC >170% of positive control) | +++ (NAUC “+++” refers to an observed NAUC >170% of positive control) |
| O=C1C2C3CC(F)(F)CN3C3(C(=O)Nc4c(Cl)cc(Cl)cc43)C2C(=O)N1c1cc(Cl)cc(Cl)c1 (single isomer, unassigned) [Example 180] | ++ (NAUC “++” refers to an observed NAUC 170-140% of positive control) | + (NAUC “+” refers to an observed NAUC <140% of positive control) |
| O=C1C2C3CC4(CC4)CN3C3(C(=O)Nc4c(Cl)cc(Cl)cc43)C2C(=O)N1c1cc(Cl)cc(Cl)c1 (single isomer, unassigned) [Example 191] | +++ (NAUC “+++” refers to an observed NAUC >170% of positive control) | +++ (NAUC “+++” refers to an observed NAUC >170% of positive control) |
| O=C1C2C3CC4(CC4)CN3C3(C(=O)Nc4c(Cl)cc(Cl)cc43)C2C(=O)N1c1cc(Cl)cc(Cl)c1 (single isomer, unassigned) [Example 192] | + (NAUC “+” refers to an observed NAUC <140% of positive control) | ++ (NAUC “++” refers to an observed NAUC 170-140% of positive control) |
| COc1c(Cl)cc(N2C(=O)C3C4CC5(CC5)CN4C4(C(=O)Nc5c(Cl)cc(Cl)cc54)C3C2=O)cc1Cl (single isomer, unassigned) [Example 197] | +++ (NAUC “+++” refers to an observed NAUC >170% of positive control) | +++ (NAUC “+++” refers to an observed NAUC >170% of positive control) |
| O=C1C2C3CC4(CC4)CN3C3(C(=O)Nc4c(Cl)cc(Cl)cc43)C2C(=O)N1c1cc(Cl)cc(Cl)n1 (single isomer, unassigned) [Example 218] | +++ (NAUC “+++” refers to an observed NAUC >170% of positive control) | +++ (NAUC “+++” refers to an observed NAUC >170% of positive control) |
| O=C1C2C3CC4(CC4)CN3C3(C(=O)Nc4c(Cl)cc(Cl)cc43)C2C(=O)N1c1cc(Cl)cc(Cl)n1 (single isomer, unassigned) [Example 219] | ++ (NAUC “++” refers to an observed NAUC 170-140% of positive control) | + (NAUC “+” refers to an observed NAUC <140% of positive control) |
| O=C1C2C3CC(F)(F)CN3C3(C(=O)Nc4c(Cl)cc(Cl)cc43)C2C(=O)N1c1cc(Cl)cc(Cl)n1 (single isomer, unassigned) [Example 220] | +++ (NAUC “+++” refers to an observed NAUC >170% of positive control) | +++ (NAUC “+++” refers to an observed NAUC >170% of positive control) |
| COc1c(Cl)cc(N2C(=O)C3C4CC(F)(F)CN4C4(C(=O)Nc5c(Cl)cc(Cl)cc54)C3C2=O)cc1Cl (single isomer, unassigned) [Example 221] | +++ (NAUC “+++” refers to an observed NAUC >170% of positive control) | +++ (NAUC “+++” refers to an observed NAUC >170% of positive control) |
| C[C@@]1(F)CC2C3C(=O)N(c4cc(Cl)cc(Cl)n4)C(=O)C3C3(C(=O)Nc4c(Cl)cc(Cl)cc43)N2C1 (single isomer, unassigned) [Example 230] | +++ (NAUC “+++” refers to an observed NAUC >170% of positive control) | +++ (NAUC “+++” refers to an observed NAUC >170% of positive control) |
| C[C@]1(OCc2ccccc2)CC2C3C(=O)N(c4cc(Cl)cc(Cl)c4)C(=O)C3C3(C(=O)Nc4c(Cl)cc(Cl)cc43)N2C1 (single isomer, unassigned) [Example 239] | ++ (NAUC “++” refers to an observed NAUC 170-140% of positive control) | ++ (NAUC “++” refers to an observed NAUC 170-140% of positive control) |
| C[C@]1(OCc2ccccc2)CC2C3C(=O)N(c4cc(Cl)cc(Cl)c4)C(=O)C3C3(C(=O)Nc4c(Cl)cc(Cl)cc43)N2C1 (single isomer, unassigned) [Example 240] | +++ (NAUC “+++” refers to an observed NAUC >170% of positive control) | + (NAUC “+” refers to an observed NAUC <140% of positive control) |
| C[C@]1(OCc2ccccc2)CC2C3C(=O)N(c4cc(Cl)cc(Cl)c4)C(=O)C3C3(C(=O)Nc4c(Cl)cc(Cl)cc43)N2C1 (single isomer, unassigned) [Example 241] | +++ (NAUC “+++” refers to an observed NAUC >170% of positive control) | +++ (NAUC “+++” refers to an observed NAUC >170% of positive control) |
| CC(C)C1NC2(C(=O)Nc3c(Cl)cc(Cl)cc32)C2C(=O)N(c3cc(Cl)cc(Cl)c3)C(=O)C12 (single isomer, unassigned) [Example 242] | +++ (NAUC “+++” refers to an observed NAUC >170% of positive control) | +++ (NAUC “+++” refers to an observed NAUC >170% of positive control) |
| O=C1C2C3C[C@H](F)CN3C3(C(=O)Nc4c(Cl)cc(Cl)cc43)C2C(=O)N1c1cc(Cl)cc(Cl)c1 (single isomer, unassigned) [Example 243] | +++ (NAUC “+++” refers to an observed NAUC >170% of positive control) | +++ (NAUC “+++” refers to an observed NAUC >170% of positive control) |
